The values that follow come from ChEMBL document CHEMBL2074369, “Interactions of HIV protease inhibitors with a human organic cation transporter in a mammalian expression system” (Drug Metab Dispos, 2000).

Data set [1] deals with Solute carrier family 22 member 1, Homo sapiens (UniProt O15245). The data set is described as follows: TP_TRANSPORTER: inhibition of TEA uptake (TEA: 10 uM) in OCT1-expressing HeLa cells.
Data set [2] addresses T1, Solute carrier family 22 member 1 (Rattus norvegicus, UniProt Q63089).
T1 sequence (Q63089 whole entry): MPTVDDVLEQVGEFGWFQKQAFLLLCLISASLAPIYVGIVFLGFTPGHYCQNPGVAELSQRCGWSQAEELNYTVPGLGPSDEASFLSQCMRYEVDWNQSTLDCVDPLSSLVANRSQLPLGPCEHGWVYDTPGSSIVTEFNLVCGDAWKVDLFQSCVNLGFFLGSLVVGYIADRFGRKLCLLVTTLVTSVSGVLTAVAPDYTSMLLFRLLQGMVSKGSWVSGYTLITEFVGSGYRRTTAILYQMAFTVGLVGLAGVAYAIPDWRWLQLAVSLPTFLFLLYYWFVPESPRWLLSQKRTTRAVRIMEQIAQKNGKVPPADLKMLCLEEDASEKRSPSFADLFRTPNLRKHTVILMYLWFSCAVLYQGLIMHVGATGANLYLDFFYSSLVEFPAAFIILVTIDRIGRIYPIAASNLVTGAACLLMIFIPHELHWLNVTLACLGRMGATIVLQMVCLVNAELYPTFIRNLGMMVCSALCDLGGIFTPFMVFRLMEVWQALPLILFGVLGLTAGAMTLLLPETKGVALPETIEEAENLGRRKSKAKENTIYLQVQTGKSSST
The data set is described as follows: TP_TRANSPORTER: uptake in OCT1-expressing HeLa cells. The settings on record: human. It is filed as functional, cell-based.

Sequence of Solute carrier family 22 member 1, Homo sapiens (O15245 whole entry, looked up): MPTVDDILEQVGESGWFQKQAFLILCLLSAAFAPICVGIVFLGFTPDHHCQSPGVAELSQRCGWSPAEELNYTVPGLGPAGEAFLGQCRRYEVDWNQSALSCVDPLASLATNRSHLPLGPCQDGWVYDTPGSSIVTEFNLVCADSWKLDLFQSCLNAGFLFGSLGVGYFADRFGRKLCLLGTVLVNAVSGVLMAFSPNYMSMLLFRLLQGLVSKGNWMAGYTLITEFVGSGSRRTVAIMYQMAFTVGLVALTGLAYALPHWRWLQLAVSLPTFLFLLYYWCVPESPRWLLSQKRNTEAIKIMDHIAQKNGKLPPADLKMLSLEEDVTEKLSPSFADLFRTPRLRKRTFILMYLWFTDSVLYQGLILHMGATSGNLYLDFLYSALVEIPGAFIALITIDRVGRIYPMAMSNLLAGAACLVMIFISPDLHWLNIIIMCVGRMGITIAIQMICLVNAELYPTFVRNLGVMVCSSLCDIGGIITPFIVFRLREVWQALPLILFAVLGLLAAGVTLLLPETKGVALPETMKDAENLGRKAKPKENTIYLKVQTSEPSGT

What is called IC50 is the point on the concentration scale where inhibition reaches its midpoint. A high value points to a need for much substance. In turn, `CC(C)(C)NC(=O)[C@@H]1CN(Cc2cccnc2)CCN1C[C@@H](O)C[C@@H](Cc1ccccc1)C(=O)N[C@H]1c2ccccc2C[C@H]1O` [INDINAVIR] displayed an IC50 in data set [1] of 61.7 µM.

In data set [1], `Cc1c(O)cccc1C(=O)N[C@@H](CSc1ccccc1)[C@H](O)CN1C[C@H]2CCCC[C@H]2C[C@H]1C(=O)NC(C)(C)C` [NELFINAVIR] came in with a 50% inhibitory concentration (IC50) of 21.8 µM.

For `CC(C)(C)NC(=O)[C@@H]1C[C@@H]2CCCC[C@@H]2CN1C[C@@H](O)[C@H](Cc1ccccc1)NC(=O)[C@H](CC(N)=O)NC(=O)c1ccc2ccccc2n1` [SAQUINAVIR], in data set [2], the Activity result is “is not a substrate [-]”. Also, in data set [1], the IC50 worked out at 8.26 µM.
